Results taken from ChEMBL document CHEMBL4507310, “Data for DCP probe A-1211212” (2021).

Key:
[1] = biological target: D(4) dopamine receptor (Homo sapiens) (UniProt P21917); details: Compound concentration 10.0 uM
[2] = biological target: Induced myeloid leukemia cell differentiation protein Mcl-1 (Homo sapiens, UniProt Q07820); test: Time-resolved fluorescence energy transfer (TR-FRET) with MCL1
[3] = biological target: T1, 5-hydroxytryptamine receptor 1A (Homo sapiens) (UniProt P08908); details: Compound concentration 10.0 uM
T1 sequence (whole entry): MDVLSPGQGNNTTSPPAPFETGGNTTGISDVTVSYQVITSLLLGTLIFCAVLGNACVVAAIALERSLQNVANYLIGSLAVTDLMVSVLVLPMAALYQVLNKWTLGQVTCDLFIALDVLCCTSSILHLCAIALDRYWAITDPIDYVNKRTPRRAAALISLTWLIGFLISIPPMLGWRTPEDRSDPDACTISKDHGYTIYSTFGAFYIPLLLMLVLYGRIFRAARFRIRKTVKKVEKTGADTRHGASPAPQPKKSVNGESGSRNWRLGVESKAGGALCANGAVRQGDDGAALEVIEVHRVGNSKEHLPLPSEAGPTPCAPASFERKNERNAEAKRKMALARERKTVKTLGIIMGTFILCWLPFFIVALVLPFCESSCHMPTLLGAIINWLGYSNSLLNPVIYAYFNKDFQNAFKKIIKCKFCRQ

AMO1 = test: CellTiter-Glo Luminescent Cell Viability Assay ( MCL-1 dependent cell line AMO-1); type: functional, cell-based; details: Homo sapiens
[4] = biological target: 5-hydroxytryptamine receptor 6 (Homo sapiens) (UniProt P50406); details: Compound concentration 10.0 uM
5-hydroxytryptamine receptor 6 (Homo sapiens), sequence (P50406 whole entry): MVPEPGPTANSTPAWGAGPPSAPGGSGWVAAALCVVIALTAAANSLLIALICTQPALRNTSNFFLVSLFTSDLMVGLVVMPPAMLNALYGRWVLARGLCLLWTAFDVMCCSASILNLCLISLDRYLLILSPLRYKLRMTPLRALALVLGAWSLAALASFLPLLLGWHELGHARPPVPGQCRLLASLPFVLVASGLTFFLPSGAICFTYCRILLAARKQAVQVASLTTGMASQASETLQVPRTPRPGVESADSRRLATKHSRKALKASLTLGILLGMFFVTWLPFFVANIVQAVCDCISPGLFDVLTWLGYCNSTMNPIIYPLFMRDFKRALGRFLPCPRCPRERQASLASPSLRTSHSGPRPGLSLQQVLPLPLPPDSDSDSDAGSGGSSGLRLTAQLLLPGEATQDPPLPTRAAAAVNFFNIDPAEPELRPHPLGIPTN

Induced myeloid leukemia cell differentiation protein Mcl-1, sequence (Q07820 whole entry): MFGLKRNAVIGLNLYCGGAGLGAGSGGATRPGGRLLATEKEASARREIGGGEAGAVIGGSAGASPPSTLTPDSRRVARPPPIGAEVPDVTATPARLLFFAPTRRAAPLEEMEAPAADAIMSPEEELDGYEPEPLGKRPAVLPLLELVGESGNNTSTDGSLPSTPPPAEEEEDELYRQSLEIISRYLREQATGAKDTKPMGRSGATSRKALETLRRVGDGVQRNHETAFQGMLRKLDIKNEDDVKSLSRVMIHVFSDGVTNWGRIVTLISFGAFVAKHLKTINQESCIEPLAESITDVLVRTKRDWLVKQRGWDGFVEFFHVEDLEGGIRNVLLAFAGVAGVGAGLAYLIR
D(4) dopamine receptor (Homo sapiens), sequence (P21917 whole entry): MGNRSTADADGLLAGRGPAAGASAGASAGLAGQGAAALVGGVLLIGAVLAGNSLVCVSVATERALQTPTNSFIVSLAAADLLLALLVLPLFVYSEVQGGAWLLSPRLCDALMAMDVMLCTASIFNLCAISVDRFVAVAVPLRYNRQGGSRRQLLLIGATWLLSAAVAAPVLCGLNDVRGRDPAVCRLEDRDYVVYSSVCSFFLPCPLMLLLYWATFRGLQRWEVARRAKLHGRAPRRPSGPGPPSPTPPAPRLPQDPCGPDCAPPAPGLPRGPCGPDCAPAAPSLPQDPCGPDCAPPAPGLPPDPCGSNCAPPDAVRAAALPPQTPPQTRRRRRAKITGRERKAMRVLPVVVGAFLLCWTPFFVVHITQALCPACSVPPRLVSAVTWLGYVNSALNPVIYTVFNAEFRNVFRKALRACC

`CO[C@H]1CC[C@H](CNc2ccc(S(=O)(=O)NC(=O)c3ccc(N4CCN(CC5=C(c6ccc(Cl)cc6)CC(C)(C)CC5)CC4)cc3Oc3cnc4[nH]ccc4c3)cc2[N+](=O)[O-])CC1` [A-1211212] was tested, and the inhibition [1] was -4.72%, the IC50 [2] was 2.05 µM (not active) and the inhibition [3] was -7.27%. The EC50 (AMO1) was > 1 µM (not active) and the inhibition [4] was -8.56%.
